Reference: US20230372350A1, “ASTROCYTIC TRPA1 CHANNEL INHIBITION AS A NOVEL NEUROPROTECTIVE THERAPEUTIC TARGET IN THE PRODROMAL PHASES OF ALZHEIMER'S DISEASE” (priority 2020, published 2023)

Key:
[1] = test system: models of neuropathic and inflammatory pain; conditions: rats, oral administration 100 mg/kg; Eid et al. 2008; cited from earlier work
CA1 pyramidal neurons = assay: Acute in vitro application on hippocampal slices: CA1 neuronal activity; format: cell-based, mouse; conditions: 1-month old APP/PS1-21 animals
Procedure: Coronal sections of the hippocampus (thickness 300 μm) were prepared from APP/PS1-21 transgenic mice (1 month and 3 months old) or from WT mice from the same litter. The mice were sacrificed by decerebration and decapitation. The brain was quickly removed and sectioned in ice-cold ACSF containing (in mM) : 2.5 KCl, 7 MgCl2, 0.5 CaCl2, 1.2 NaHPO4, 25 NaHCO3, 11D-glucose and 234 sucrose bubbled with 95% of O2 and 5% of CO2 with a V[…] vibratome (Leica, Germany). The sections containing the hippocampus were placed in ACSF containing (in mM) : 126 NaCl, 2.5 KCl, 1.2 MgCl2, 2.5 CaCl2, 1.2 NaH2PO4 bubbled with 95% of O2 and 5% of CO2 and supplemented with 1 mM of sodium pyruvate at room temperature for a recovery period. Whole-cell recordings were performed on visually identified CA1 pyramidal neuron somas. […] The sEPSCs and their kinetics were analyzed, after a stabilization period of 10 minutes, 5 minutes from the recordings. Access resistance was constantly monitored and recordings were excluded from this study when this parameter varied more than 20% during the experiment. Recordings were analyzed using the Clampfit module of pClamp8 software (Molecular Devices, USA) with a single one at 20 pA to exclude miniature sEPSCs.

[2] = test system: trigeminal neuropathy-like pain behaviors; conditions: mice, subcutaneous (100 μg/10 μl) or intragastric (300 mg/kg); Trevisan et al. 2016; cited from earlier work
[3] = test system: hippocampal astrocytes of APP/PS1-21 and WT mice; assay: Chronic intraperitoneal treatment: astrocyte calcium imaging (Fluo-4) in hippocampal slices; format: in vivo, mouse
Procedure: The used model is a transgenic murine model obtained on a C57BL/6J genetic background which co-expresses the mutated human form of the amyloid precursor protein (mutated APP KM670/671NL) and of presenilin 1 (mutated PS1 L166P) under the control of the neural promoter Thy1. The presence of these two mutations allows increased production of the Aβ peptide from the 14th postnatal day. This leads to cerebral amyloidosis with the appearance of the first senile plaques around 8 postnatal weeks. This amyloid pathology is accompanied by inflammatory gliosis (microgliosis and astrogliosis detectable from 4 months), dendritic spine dystrophy and tau hyperphosphorylation (around 8 months). Cognitive behavioral disorders, and in particular of learning and spatial memory, are developed in around 6 to 8 months. This model was set-up and described by Rebecca Radde in 2006 (Radde et al., EMBO reports, 2006) and is widely used by the scientific community. This model is available in the animal facility of the Institut des Neurosciences de Grenoble and has been bred by the inventors since 2014.
This solution is then diluted to 1 μg/μl in an isotonic solution containing 1% Pluronic F-127 and 0.9% NaCl. The animals are injected daily intraperitoneally at a dose of 5 mg/kg of body mass. Sterile 0.5 ml BD MicroFine syringes with no dead volume, equipped with a 30G (0.3 mm) needle are used for the injections.
The carrier (10% DMSO, 1% Pluronic F-127, 0.9% NaCl) is used as a control and is also injected daily, according to the same procedure, into the WT and APP/PS1 control animals (carrier groups).
The injection is started from the 14th postnatal day (appearance of the expression of the Thy1gene promoter in the hippocampus, triggering the overexpression of Aβ in the APP/PS1-21 murine model)
Coronal sections of the hippocampus (thickness 300 μm) were prepared from APP/PS1-21 transgenic mice (1 month and 3 months old) or from WT mice from the same litter. The mice were sacrificed by decerebration and decapitation. The brain was quickly removed and sectioned in ice-cold ACSF containing (in mM) : 2.5 KCl, 7 MgCl2, 0.5 CaCl2, 1.2 NaHPO4, 25 NaHCO3, 11D-glucose and 234 sucrose bubbled with 95% of O2 and 5% of CO2 with a VT1200S vibratome (Leica, Germany). The sections containing the hippocampus were placed in ACSF containing (in mM) : 126 NaCl, 2.5 KCl, 1.2 MgCl2, 2.5 CaCl2, 1.2 NaH2PO4 bubbled with 95% of O2 and 5% of CO2 and supplemented with 1 mM of sodium pyruvate at room temperature for a recovery period.
300 μm coronal sections were transferred to a chamber allowing constant perfusion with ACSF at room temperature, bubbling with 95% of O2 and 5% of CO2 on the upright microscope tray (Eclipse E600 FN, Nikon, France) equipped with a 60× (NA 1.0) water immersion objective and infrared interference contrast optical systems with a CCD camera (Optronis VX45, Germany). 8-11 MSΩ glass pipettes (Harvard Apparatus) were filled with an intracellular solution containing (in mM): 105 K-gluconate, 30 KCl, 10 phosphocreatine, 10 HEPES, 4 ATP-Mg, 0.3 GTP-Tris, 0.2 Fluo-4-pentapotassium salt (Life Technologies), adjusted to pH 7.2 with KOH. The signals were amplified by Axopatch 200B, sampled by a Digidata 1440A interface and recorded by the pClamp8 software (Molecular Devices, USA). Astrocytes were identified on the basis of their morphology, their location in the stratum radiatum and a negative resting potential (between −70 and −80 mV). The membrane potential was maintained at −80 mV. The input resistance was calculated by measuring the current in response to a 10 mV pulse of 80 ms duration near the end of the voltage command.

[4] = APP/PS1-21 mice, 1-month old, 5 mg/kg i.p. daily from 14th postnatal day
[5] = APP/PS1-21 mice, 3 months, chronic treatment 5 mg/kg i.p.
[6] = WT control mice, 1-month old, 5 mg/kg i.p. daily from 14th postnatal day
[7] = WT mice, 3 months, chronic treatment 5 mg/kg i.p.

## CC(C)c1ccc(NC(=O)Cn2cnc3c2c(=O)n(C)c(=O)n3C)cc1 [HC030031, 2-(1,3-Dimethyl-2,6-dioxo-1,2,3,6-tetrahydro-7H-purin-7-yl)-N-(4-isopropylphenyl)acetamide]
[1]
  analgesic effect: significant analgesic effect
CA1 pyramidal neurons
  neuronal hyperactivity (CA1): fully restored
[2]
  trigeminal neuropathy-like pain behaviors: abolished
[3]; [4]
  calcium event frequency: 0.48±0.02 calcium event/minute
  proportion of active microdomains: 56.1±3.9%
[3]; [5]
  frequency of calcium events within microdomains: 0.50±0.06 event/minute
  proportion of active microdomains: 49.4±6.4%
[3]; [6]
  frequency of calcium events within the microdomains: 0.51±0.02 calcium event/min
  proportion of active microdomains: 53.0±2.7%
[3]; [7]
  frequency of calcium events within microdomains: 0.62±0.04 calcium event/minute
  proportion of active microdomains: 60.2±3.8%
